{"source": "patent US9426996B2", "about": "“Use of benzoxaboroles as volatile antimicrobial agents on meats, plants, or plant parts” (AgroFresh Inc., priority 2013, dated 2016)", "key": {"[1]": {"tested_on": "Penicillium expansum", "test": "in vivo volatile bioassay using apple", "settings": "50 mg/L; for Sporulation (mm) / Rot (mm): apples", "protocol": "In order to assess the in vivo activity of volatile antimicrobial Compound A in fruit, a volatile bioassay is developed using apple. Two apples are placed inside a PET clamshell. Three fresh wounds per apple are inoculated with 30 μL of 1×10^6 per mL Penicillium expansum spore suspension. The clamshells are placed inside a 10.8-cup SnapWare airtight container (Model #109842). A 42.5 mm Whatman #1 filter disk (Cat. No. 1001-042) is placed on a watch glass. Compound A is dissolved in acetone and added to the disks in a manner to produce a final headspace concentration of 50 mg/L. The acetone is permitted to evaporate for five minutes. The containers are then closed with the lids, and placed for three days at 21° C. After storage, fruits are evaluated for disease incidence (mm diameter of the rot) and pathogen sporulation (mm diameter) on the surface of the fruits for an additional three days at 21° C., with results summarized in Table 19."}, "[2]": {"tested_on": "Botrytis cinerea", "test": "white carnations with natural inoculum, fog or passive volatile treatment", "type": "in vivo", "settings": "8 days of shelf-life", "protocol": "A similar test like the one described above is also performed on white carnations (treated with or without the commercial anti-ethylene compound silver thiosulfate; STS) with natural inoculum. Compound A is either dissolved in an aqueous 1,2-propylene glycol solution (3:1) and 5 mL of the solution volatilized using an ES-100-H SmartFog system (Reno, Nev.) through a ½″ side port that is sealed immediately after the application, or dissolved in acetone and applied to a 42.5 millimeter (mm) Whatman #1 filter disk (Cat. No. 1001-042), and placed on a watch glass after allowing the acetone to evaporate for 5 minutes. The flowers are incubated for 3 days at 21° C. After storage, the flowers are evaluated for an additional 8 days for disease severity based on the number of lesions present on flower petals and sepals."}, "[3]": {"tested_on": "Botrytis cinerea", "test": "in vivo volatile bioassay using green table grape", "protocol": "In order to assess the in vivo activity of volatile antimicrobial compounds, a volatile bioassay is developed using green table grape. Fruit are placed individually inside a 20 mL scintillation vial, with the stem wound facing upwards. The fresh stem wound is inoculated with 10 μL of 1×10^6 per mL Botrytis cinerea spore suspension. Whatman filter paper (Cat. No. 1822-024) is placed inside duplicate vial caps. […] The acetone is permitted to evaporate for 5 minutes. The vials are then capped with the lids containing the fungicide, and placed for 14 days at 4° C. After storage, fruit are evaluated for incidence of disease and appearance of phytotoxicity."}, "[4]": {"tested_on": "Penicillium digitatum", "test": "in vivo volatile bioassay using orange fruit (Compound A)", "settings": "oranges", "protocol": "In order to assess the in vivo activity of volatile antimicrobial Compound A in fruit, a volatile bioassay is developed using orange fruit. Two oranges are placed inside a PET clamshell. Three fresh wounds per orange are inoculated with 30 μL of 1×10^6 per mL Penicillium digitatum spore suspension. The clamshells are placed inside a 10.8-cup SnapWare airtight container (Model #109842). A 42.5 mm Whatman #1 filter disk (Cat. No. 1001-042) is placed on a watch glass. Compound A is dissolved in acetone and added to the disks in a dose dependent manner to produce a final headspace concentration of 2, 10, or 50 mg/L. The acetone is permitted to evaporate for five minutes. The containers are then closed with the lids and placed for three days at 21° C. After storage, fruits are evaluated for disease incidence (mm diameter of the rot) and pathogen sporulation (mm diameter) on the surface of the fruits for an additional two days at 21° C., with results summarized in Table 18."}}, "data": [{"smiles": "OB1OCc2cc(F)ccc21", "note": "[Compound A]", "values": [{"measurement": "in vivo volatile antimicrobial control of P. expansum mold of apple", "setting": "[1]; up to 3 days after treatment", "value": 100, "unit": "%"}, {"measurement": "Sporulation (mm)", "setting": "[1]; Day 0", "value": 0, "unit": "mm"}, {"measurement": "Rot (mm)", "setting": "[1]; Day 1", "value": 0, "unit": "mm"}, {"measurement": "Sporulation (mm)", "setting": "[1]; Day 1", "value": 0, "unit": "mm"}, {"measurement": "Rot (mm)", "setting": "[1]; Day 2", "value": 0, "unit": "mm"}, {"measurement": "Sporulation (mm)", "setting": "[1]; Day 2", "value": 0, "unit": "mm"}, {"measurement": "Rot (mm)", "setting": "[1]; Day 3", "value": 0, "unit": "mm"}, {"measurement": "Sporulation (mm)", "setting": "[1]; Day 3", "value": 0, "unit": "mm"}, {"measurement": "Severity (Average Number of Lesions)", "setting": "[2]; Petals, 0.04 mg/L, Non-STS, Fog", "value": 0.4}, {"measurement": "Severity (Average Number of Lesions)", "setting": "[2]; Petals, 0.04 mg/L, Non-STS, Volatile", "value": 3.1}, {"measurement": "Severity (Average Number of Lesions)", "setting": "[2]; Petals, 0.04 mg/L, STS, Fog", "value": 0.3}, {"measurement": "Severity (Average Number of Lesions)", "setting": "[2]; Petals, 0.04 mg/L, STS, Volatile", "value": 0.5}, {"measurement": "Severity (Average Number of Lesions)", "setting": "[2]; Petals, 0.2 mg/L, Non-STS, Fog", "value": 0}, {"measurement": "Severity (Average Number of Lesions)", "setting": "[2]; Petals, 0.2 mg/L, Non-STS, Volatile", "value": 1.8}, {"measurement": "Severity (Average Number of Lesions)", "setting": "[2]; Petals, 0.2 mg/L, STS, Fog", "value": 0}, {"measurement": "Severity (Average Number of Lesions)", "setting": "[2]; Petals, 0.2 mg/L, STS, Volatile", "value": 0.1}, {"measurement": "Severity (Average Number of Lesions)", "setting": "[2]; Petals, 1 mg/L, Non-STS, Fog", "value": 0}, {"measurement": "Severity (Average Number of Lesions)", "setting": "[2]; Petals, 1 mg/L, Non-STS, Volatile", "value": 1.5}, {"measurement": "Severity (Average Number of Lesions)", "setting": "[2]; Petals, 1 mg/L, STS, Fog", "value": 0}, {"measurement": "Severity (Average Number of Lesions)", "setting": "[2]; Petals, 1 mg/L, STS, Volatile", "value": 0.1}, {"measurement": "Severity (Average Number of Lesions)", "setting": "[2]; Sepals, 0.04 mg/L, Non-STS, Fog", "value": 0.3}, {"measurement": "Severity (Average Number of Lesions)", "setting": "[2]; Sepals, 0.04 mg/L, Non-STS, Volatile", "value": 2.1}, {"measurement": "Severity (Average Number of Lesions)", "setting": "[2]; Sepals, 0.04 mg/L, STS, Fog", "value": 0.6}, {"measurement": "Severity (Average Number of Lesions)", "setting": "[2]; Sepals, 0.04 mg/L, STS, Volatile", "value": 1.1}, {"measurement": "Severity (Average Number of Lesions)", "setting": "[2]; Sepals, 0.2 mg/L, Non-STS, Fog", "value": 0.04}, {"measurement": "Severity (Average Number of Lesions)", "setting": "[2]; Sepals, 0.2 mg/L, Non-STS, Volatile", "value": 1.6}, {"measurement": "Severity (Average Number of Lesions)", "setting": "[2]; Sepals, 0.2 mg/L, STS, Fog", "value": 0.1}, {"measurement": "Severity (Average Number of Lesions)", "setting": "[2]; Sepals, 0.2 mg/L, STS, Volatile", "value": 0.3}, {"measurement": "Severity (Average Number of Lesions)", "setting": "[2]; Sepals, 1 mg/L, Non-STS, Fog", "value": 0.04}, {"measurement": "Severity (Average Number of Lesions)", "setting": "[2]; Sepals, 1 mg/L, Non-STS, Volatile", "value": 1}, {"measurement": "Severity (Average Number of Lesions)", "setting": "[2]; Sepals, 1 mg/L, STS, Fog", "value": 0.04}, {"measurement": "Severity (Average Number of Lesions)", "setting": "[2]; Sepals, 1 mg/L, STS, Volatile", "value": 0.2}, {"measurement": "Botrytis inhibition % (in vivo)", "setting": "[3]; 0.005 mg per disk, 14 days at 4° C.", "value": 0, "unit": "%"}, {"measurement": "Botrytis inhibition % (in vivo)", "setting": "[3]; 0.01 mg per disk, 14 days at 4° C.", "value": 0, "unit": "%"}, {"measurement": "Botrytis inhibition % (in vivo)", "setting": "[3]; 0.023 mg per disk, 14 days at 4° C.", "value": 0, "unit": "%"}, {"measurement": "Botrytis inhibition % (in vivo)", "setting": "[3]; 0.04 mg per disk, 14 days at 4° C.", "value": 100, "unit": "%"}, {"measurement": "Botrytis inhibition % (in vivo)", "setting": "[3]; 0.08 mg per disk, 14 days at 4° C.", "value": 100, "unit": "%"}, {"measurement": "Botrytis inhibition % (in vivo)", "setting": "[3]; 0.16 mg per disk, 14 days at 4° C.", "value": 100, "unit": "%"}, {"measurement": "Botrytis inhibition % (in vivo)", "setting": "[3]; 0.31 mg per disk, 14 days at 4° C.", "value": 100, "unit": "%"}, {"measurement": "Botrytis inhibition % (in vivo)", "setting": "[3]; 0.63 mg per disk, 14 days at 4° C.", "value": 100, "unit": "%"}, {"measurement": "Botrytis inhibition % (in vivo)", "setting": "[3]; 1.25 mg per disk, 14 days at 4° C.", "value": 100, "unit": "%"}, {"measurement": "lowest rate with 100% control of Botrytis cinerea", "setting": "[3]; 14 days at 4° C.", "value": 0.04, "unit": "mg/disk"}, {"measurement": "appearance of phytotoxicity", "setting": "[3]; any of the rates evaluated (2.5 to 0.0024 mg/disk)", "value": "no evidence of phytotoxicity"}, {"measurement": "Sporulation (mm)", "setting": "[4]; 2 mg/L, Day 0", "value": 0, "unit": "mm"}, {"measurement": "Water soaked lesions (mm)", "setting": "[4]; 2 mg/L, Day 0", "value": 0, "unit": "mm"}, {"measurement": "Sporulation (mm)", "setting": "[4]; 2 mg/L, Day 1", "value": 0.4, "unit": "mm"}, {"measurement": "Water soaked lesions (mm)", "setting": "[4]; 2 mg/L, Day 1", "value": 0, "unit": "mm"}, {"measurement": "Sporulation (mm)", "setting": "[4]; 2 mg/L, Day 2", "value": 2.7, "unit": "mm"}, {"measurement": "Water soaked lesions (mm)", "setting": "[4]; 2 mg/L, Day 2", "value": 13.4, "unit": "mm"}, {"measurement": "Sporulation (mm)", "setting": "[4]; 10 mg/L, Day 0", "value": 0.5, "unit": "mm"}, {"measurement": "Water soaked lesions (mm)", "setting": "[4]; 10 mg/L, Day 0", "value": 0, "unit": "mm"}, {"measurement": "Sporulation (mm)", "setting": "[4]; 10 mg/L, Day 1", "value": 0.4, "unit": "mm"}, {"measurement": "Water soaked lesions (mm)", "setting": "[4]; 10 mg/L, Day 1", "value": 0, "unit": "mm"}, {"measurement": "Sporulation (mm)", "setting": "[4]; 10 mg/L, Day 2", "value": 2.5, "unit": "mm"}, {"measurement": "Water soaked lesions (mm)", "setting": "[4]; 10 mg/L, Day 2", "value": 9, "unit": "mm"}, {"measurement": "Sporulation (mm)", "setting": "[4]; 50 mg/L, Day 0", "value": 0, "unit": "mm"}, {"measurement": "Water soaked lesions (mm)", "setting": "[4]; 50 mg/L, Day 0", "value": 0, "unit": "mm"}, {"measurement": "Sporulation (mm)", "setting": "[4]; 50 mg/L, Day 1", "value": 0, "unit": "mm"}, {"measurement": "Water soaked lesions (mm)", "setting": "[4]; 50 mg/L, Day 1", "value": 0, "unit": "mm"}, {"measurement": "Sporulation (mm)", "setting": "[4]; 50 mg/L, Day 2", "value": 1.2, "unit": "mm"}, {"measurement": "Water soaked lesions (mm)", "setting": "[4]; 50 mg/L, Day 2", "value": 5, "unit": "mm"}]}]}
